From patent publication US8227508B2, “Dietary and pharmaceutical compositions containing carnosol and/or rosmanol and their uses” (DSM IP Assets B.V., priority 2006, dated 2012)

Key:
[1] = target: T1, monoamine oxidase A (MAO-A) (Homo sapiens, UniProt P21397); experiment: Monoamine oxidase A inhibition (p-tyramine substrate, HRP/vanillic acid readout); assay type: biochemical; conditions: mean ± s.e.m., n = 3
T1 sequence (P21397 1-527): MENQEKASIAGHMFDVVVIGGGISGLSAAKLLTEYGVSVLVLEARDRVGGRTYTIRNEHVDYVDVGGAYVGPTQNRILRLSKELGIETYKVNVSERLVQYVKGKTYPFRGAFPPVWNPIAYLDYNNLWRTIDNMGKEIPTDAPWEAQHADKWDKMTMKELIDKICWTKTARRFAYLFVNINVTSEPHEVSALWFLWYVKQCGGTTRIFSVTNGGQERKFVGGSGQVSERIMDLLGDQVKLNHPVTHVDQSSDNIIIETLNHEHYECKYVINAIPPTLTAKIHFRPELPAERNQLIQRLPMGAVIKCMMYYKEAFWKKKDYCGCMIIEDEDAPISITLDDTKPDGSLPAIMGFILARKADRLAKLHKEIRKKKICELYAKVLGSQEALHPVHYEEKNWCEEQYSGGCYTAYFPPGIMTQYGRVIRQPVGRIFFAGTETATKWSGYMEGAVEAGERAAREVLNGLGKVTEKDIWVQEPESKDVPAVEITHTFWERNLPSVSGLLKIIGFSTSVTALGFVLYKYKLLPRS
Procedure: The organic amines p-tyramine or benzylamine were used as substrates for the monoamine oxidase A (MAO-A) and B (MAO-B) enzymes respectively. The H2O2 produced by this reaction was quantified by reaction with vanillic acid, catalysed by horse radish peroxidase (HRP).
The reactions were carried out at 37° C. in polystyrene microtitre plates. The MAO enzymes (final concentration 2 U/ml) were mixed with either p-tyramine (Sigma, final concentration 0.5 mM) or benzylamine (Sigma, final concentration 0.5 mM) as appropriate and the chromogenic solution (containing vanillic acid (Fluka), 4-aminoantipyrine (Fluka) and horse radish peroxidase (Sigma), final concentrations 0.25 mM, 0.125 mM and 1 U/ml, respectively) in 0.2 M potassium phosphate buffer, pH 7.6. After 40 min incubation, plates were analysed in a microtitre plate absorbance reader, e.g. Spectramax M5 (Molecular Devices Corporation), at 495 nm.
The effects of carnosol and rosmanol on the monoamine oxidase enzymes were determined by their inclusion in the assay at a range of concentrations between 0.03 and 100 μM for 10 minutes prior to and during the incubation with substrate. To determine the effect of the compounds on the HRP-catalysed portion of the reaction, the MAO enzyme was replaced by H2O2 (Molecular Probes, final concentration 50 μM). […]

[2] = target: T2, human noradrenaline transporter (hNAT) (Homo sapiens, UniProt P23975); experiment: Noradrenaline uptake inhibition in MDCK cells expressing hNAT; assay type: cell-based
T2 construct: expressed in transfected cells; host or cells: MDCK
T2 sequence (P23975 whole entry): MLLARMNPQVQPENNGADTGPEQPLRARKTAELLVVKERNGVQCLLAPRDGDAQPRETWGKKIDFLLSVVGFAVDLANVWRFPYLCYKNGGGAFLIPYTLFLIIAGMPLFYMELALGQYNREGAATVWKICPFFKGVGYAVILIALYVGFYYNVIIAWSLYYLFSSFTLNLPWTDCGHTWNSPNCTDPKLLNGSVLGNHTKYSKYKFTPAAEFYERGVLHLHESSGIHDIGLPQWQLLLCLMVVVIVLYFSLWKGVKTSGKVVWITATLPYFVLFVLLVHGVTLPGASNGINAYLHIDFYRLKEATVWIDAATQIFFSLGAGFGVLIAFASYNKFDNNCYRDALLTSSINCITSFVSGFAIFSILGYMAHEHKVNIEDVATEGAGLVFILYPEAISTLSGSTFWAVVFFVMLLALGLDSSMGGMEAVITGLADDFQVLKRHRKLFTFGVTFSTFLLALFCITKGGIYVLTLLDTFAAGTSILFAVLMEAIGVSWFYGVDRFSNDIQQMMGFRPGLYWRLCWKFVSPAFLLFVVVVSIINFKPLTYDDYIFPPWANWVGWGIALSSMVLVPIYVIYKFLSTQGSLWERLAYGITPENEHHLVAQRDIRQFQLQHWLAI
Procedure: Madin Darby canine kidney (MDCK) cells, stably expressing the human noradrenaline transporter (hNAT), were plated one day before the assay. […] Cells in each well were then rinsed twice, solubilised with 1% SDS lysis buffer and the lysate was analysed to determine [^3H]-noradrenaline uptake. […] Reduction of [^3H]-noradrenaline uptake by 50 percent or more (≧50%) relative to vehicle controls indicated significant inhibitory activity.

[3] = target: T3, human dopamine transporter (hDAT) (Homo sapiens, UniProt Q01959); experiment: cell-based; conditions: transfected CHO-K1 cells, 50 nM [3H]-dopamine; read-out: IC50, inhibition of dopamine reuptake
T3 construct: expressed in transfected cells; host or cells: CHO-K1
T3 sequence (Q01959 whole entry): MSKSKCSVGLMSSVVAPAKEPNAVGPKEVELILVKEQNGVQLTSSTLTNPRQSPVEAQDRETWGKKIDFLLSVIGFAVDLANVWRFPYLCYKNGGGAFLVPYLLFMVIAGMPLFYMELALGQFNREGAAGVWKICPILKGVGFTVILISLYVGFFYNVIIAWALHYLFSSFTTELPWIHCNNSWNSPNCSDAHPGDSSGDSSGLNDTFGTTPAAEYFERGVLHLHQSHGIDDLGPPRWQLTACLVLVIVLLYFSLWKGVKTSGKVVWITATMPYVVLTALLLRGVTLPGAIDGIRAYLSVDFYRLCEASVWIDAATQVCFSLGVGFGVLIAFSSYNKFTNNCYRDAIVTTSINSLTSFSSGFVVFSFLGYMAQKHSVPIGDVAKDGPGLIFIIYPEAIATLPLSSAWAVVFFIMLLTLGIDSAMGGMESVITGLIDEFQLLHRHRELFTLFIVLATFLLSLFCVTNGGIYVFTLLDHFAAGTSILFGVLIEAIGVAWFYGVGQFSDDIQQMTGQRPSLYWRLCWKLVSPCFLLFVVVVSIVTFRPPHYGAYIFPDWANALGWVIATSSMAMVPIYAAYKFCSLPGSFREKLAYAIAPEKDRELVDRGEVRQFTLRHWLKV
Procedure: Specific signal was determined in the presence of 10 μM nomifensine (dopamine reuptake inhibitor). Cells were then solubilised with 1% SDS lysis buffer.

[4] = target: T4, human glycine transporter 1b (GlyT1) (Homo sapiens, UniProt P48067); experiment: Glycine uptake inhibition in CHO cells expressing GlyT1; assay type: cell-based; conditions: 60 nM [3H]-glycine
T4 construct: expressed in transfected cells; host or cells: CHO
T4 sequence (P48067 1-652 isoform P48067-3): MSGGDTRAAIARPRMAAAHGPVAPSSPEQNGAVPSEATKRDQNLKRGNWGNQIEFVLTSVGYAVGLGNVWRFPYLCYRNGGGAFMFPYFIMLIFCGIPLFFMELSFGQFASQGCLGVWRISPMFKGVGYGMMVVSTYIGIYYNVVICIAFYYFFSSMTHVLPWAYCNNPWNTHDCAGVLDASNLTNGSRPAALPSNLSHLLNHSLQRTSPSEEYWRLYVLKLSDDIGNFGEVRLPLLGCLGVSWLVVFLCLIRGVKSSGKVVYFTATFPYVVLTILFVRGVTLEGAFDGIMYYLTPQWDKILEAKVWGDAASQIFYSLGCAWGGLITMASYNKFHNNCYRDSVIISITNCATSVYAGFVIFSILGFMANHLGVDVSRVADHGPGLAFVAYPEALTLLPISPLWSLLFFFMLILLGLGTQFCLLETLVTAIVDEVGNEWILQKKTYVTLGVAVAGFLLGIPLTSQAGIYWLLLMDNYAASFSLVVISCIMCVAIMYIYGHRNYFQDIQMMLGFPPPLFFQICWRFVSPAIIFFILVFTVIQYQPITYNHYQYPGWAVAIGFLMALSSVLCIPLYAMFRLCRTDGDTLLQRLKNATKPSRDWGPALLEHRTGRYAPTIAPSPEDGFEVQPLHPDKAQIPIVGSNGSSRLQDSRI
Procedure: CHO cells stably expressing the human glycine transporter 1b cDNA (GlyT1) were routinely grown in Dulbecco's Modified Eagle's Medium (Invitrogen, Carlsbad, USA) containing 10% dialysed foetal calf serum, penicillin, streptomycin, proline and the antibiotic G418. Cells were harvested by trypsinisation one day prior to the assay and were seeded in the above mentioned medium. Immediately prior to the assay, the medium was replaced by uptake buffer containing 150 mM NaCl, 1 mM CaCl2, 2.5 mM KCl, 2.5 mM MgCl2, 10 mM Glucose and 10 mM N-2-hydroxyethylpiperazine-N′-2-ethanesulfonic acid (HEPES buffer).
Glycine uptake into the cells was determined by addition of 60 nM radiolabelled [^3H]-glycine (Amersham Biosciences GE Healthcare, Slough, UK) and incubation for 30 minutes at room temperature. Following removal of unincorporated label by gentle washing three times with the above buffer, incorporated glycine was quantified by liquid scintillation counting.

SMILES	IC50 [1] [µM]	IC50 [2] [µM]	IC50 [3] [µM]	IC50 ([4]; read-out: IC50 for tritiated glycine uptake) [µM]	IC50 for tritiated glycine uptake (result in words) [4]
CC(C)c1cc2c(c(O)c1O)[C@@]13CCCC(C)(C)[C@@H]1C[C@@H]2OC3=O [Carnosol, carnosol]	4 ± 0.1	30.6	10.3	29.3	–
CC(C)c1cc2c(c(O)c1O)[C@@]13CCCC(C)(C)[C@@H]1[C@H](OC3=O)[C@H]2O [Rosmanol, rosmanol]	3.02 ± 0.48	–	–	–	inactive
